PMC9405451, “Uptake and Immunomodulatory Properties of Betanin, Vulgaxanthin I and Indicaxanthin towards Caco-2 Intestinal Cells” (Antioxidants, 2022)

Assays:
[1] = system: NOX-1; experiment: NOX-1 mRNA level (qPCR) in cytokine-stimulated Caco-2 cells; format: cell-based, human; conditions: 5–80 μM, 6 h cytokine stimulation, maximum effect
Description: (§1) Confluent Caco-2 cells were stimulated with a cocktail of cytokines comprised of tumour necrosis factor-α (TNF-α, 20 ng mL^−1), interleukin-1β (IL-1β, 40 ng mL^−1), interferon-γ (IFN-γ, 10 ng mL^−1) and lipopolysaccharide (LPS, 100 ng mL^−1) in the presence or absence of BET, VUL and IND treatments (5–80 µM) for 6 h. With the completion of incubations, cells were washed with cold DPBS and lysed with TRIsure reagent (Scientific Laboratory Supplies Ltd.). Total RNA of cell samples was extracted in accordance with the manufacturer’s instructions. After resuspending the RNA pellets in DEPC water, concentration and quality were determined using the NanoQuant plate (Tecan Spark 10M plate reader) at 260 and 280 nm. Reverse transcription of RNA was achieved using the iScript™ cDNA Synthesis Kit (Bio-Rad). Transcription levels of target genes—interleukin 6 (IL-6), IL-8, COX-2, iNOS, NADPH oxidase 1 (NOX-1), NAD(P)H quinone dehydrogenase 1 (NQO-1), heme oxygenase 1 (HO-1), glutamate-cysteine ligase catalytic subunit (GCLC), glutathione peroxidase 1 (GPX-1), glutathione S-transferase 1 (GSTA-1) and GSTP-1 were evaluated using SybrGreen based reagent (SensiFast SYBR Green, SLS Ltd., Galveston, TX, USA) via real-time qPCR using StepOne Plus Real-Time PCR System (Applied Biosystems, Nottingham, UK). […]

[2] = system: IL-6; experiment: IL-6 mRNA level (qPCR) in cytokine-stimulated Caco-2 cells; format: cell-based, human
Description: (§2) Confluent Caco-2 cells were stimulated with a cocktail of cytokines comprised of tumour necrosis factor-α (TNF-α, 20 ng mL^−1), interleukin-1β (IL-1β, 40 ng mL^−1), interferon-γ (IFN-γ, 10 ng mL^−1) and lipopolysaccharide (LPS, 100 ng mL^−1) in the presence or absence of BET, VUL and IND treatments (5–80 µM) for 6 h. With the completion of incubations, cells were washed with cold DPBS and lysed with TRIsure reagent (Scientific Laboratory Supplies Ltd.). Total RNA of cell samples was extracted in accordance with the manufacturer’s instructions. After resuspending the RNA pellets in DEPC water, concentration and quality were determined using the NanoQuant plate (Tecan Spark 10M plate reader) at 260 and 280 nm. Reverse transcription of RNA was achieved using the iScript™ cDNA Synthesis Kit (Bio-Rad). Transcription levels of target genes—interleukin 6 (IL-6), IL-8, COX-2, iNOS, NADPH oxidase 1 (NOX-1), NAD(P)H quinone dehydrogenase 1 (NQO-1), heme oxygenase 1 (HO-1), glutamate-cysteine ligase catalytic subunit (GCLC), glutathione peroxidase 1 (GPX-1), glutathione S-transferase 1 (GSTA-1) and GSTP-1 were evaluated using SybrGreen based reagent (SensiFast SYBR Green, SLS Ltd., Galveston, TX, USA) via real-time qPCR using StepOne Plus Real-Time PCR System (Applied Biosystems, Nottingham, UK). Primers of target genes were designed and blasted using the NCBI database, whose PCR product sizes were confirmed by 2% agarose gel electrophoresis. The list of primer sequences used in the study is presented in Supplemental Table S1. The calculation of target gene levels was based upon the Livak (2^−ΔΔCT) method with normalisation to the housekeeping gene, β-actin [31].

[3] = system: iNOS; experiment: iNOS mRNA level (qPCR) in cytokine-stimulated Caco-2 cells; format: cell-based, human; conditions: 5–80 μM, 6 h cytokine stimulation, maximum effect
Description: as §1

[4] = system: COX-2; experiment: COX-2 mRNA level (qPCR) in cytokine-stimulated Caco-2 cells; format: cell-based, human; conditions: 5–80 μM, 6 h cytokine stimulation, maximum effect
Description: as §1

[5] = system: iNOS; design: method as in PMID 24306215; conditions: rat model of carrageenan-induced pleurisy; cited from earlier work
[6] = system: COX-2; design: method as in PMID 24306215; conditions: rat model of carrageenan-induced pleurisy; cited from earlier work
[7] = EPR DPPH radical scavenging assay; conditions: 20 μM betalain
Description: (§3) Electron paramagnetic resonance (EPR) with spin trapping was used to determine superoxide and DPPH radical scavenging abilities of betalains reflected by the reduction of relative signal strength. EPR spectra were recorded 1 min after reagent mixing on a JEOL X320 spectrometer (X-band) in glass capillaries (0.8 mm ID). Superoxide assay was carried out by mixing the following solutions in 30% aqueous ethanol as solvent: hypoxanthine (1 mM, 55 μL), 5,5-dimethyl-1-pyrroline-N-oxide (DMPO) (1 M, 15 μL) and deferoxamine (10 mM, 10 μL). Individual betalains (200 and 500 μM) or solvent control were subsequently added in a volume of 10 μL. The reaction was initiated by the addition of 2 U mL^−1 xanthine oxidase (10 μL), achieving 20 and 50 μM as final concentrations of betalains in the mixture.
(§4) The 2,2-diphenyl-1-(2,4,6-trinitrophenyl)hydrazyl (DPPH) assay was conducted by mixing ethanol (40 μL) with 30% aqueous ethanol solutions of DPPH (100 μM, 50 μL) and purified betalains (200 μM, 10 μL), providing the working concentration of betalains as 20 μM. In both assays, acquisition of EPR spectra was started 1 min after reagent mixing. To improve the accuracy of measurements, the signal intensity for the superoxide assay was determined in triplicate by fitting the experimental spectra to the simulated superoxide-DMPO adduct spectra.

[8] = system: GCLC; experiment: GCLC mRNA level (qPCR) in cytokine-stimulated Caco-2 cells; format: cell-based, human; conditions: 5–80 μM, 6 h cytokine stimulation, vs SC
Description: as §1

[9] = system: GPX-1; experiment: GPX-1 mRNA level (qPCR) in cytokine-stimulated Caco-2 cells; format: cell-based, human; conditions: 5–80 μM, 6 h cytokine stimulation, vs SC
Description: as §1

[10] = design: method as in PMID 18959410; conditions: cited from earlier work
[11] = system: NOX-1; design: method as in PMID 23931157; conditions: 25 μM; cited from earlier work
[12] = system: differentiated Caco-2 cells; experiment: Intracellular accumulation in differentiated Caco-2 cells; format: in vitro ADME, human; conditions: 250 μM, 2 h incubation in HBSS
Description: For accumulation experiments, differentiated Caco-2 cells were incubated with purified BET, VUL and IND (250 μM) for 2 h in HBSS. The cell layer was washed twice with DPBS prior to being scraped into methanol, and pigments were subsequently extracted for LC-MS analysis. The total protein content of lysed cells was determined by bicinchoninic acid (BCA) assay (Pierce™ Thermo Scientific) in accordance with the manufacturer’s instructions.
(§5) Betalain compounds from the cell culture samples were quantified and identified by an ultra-high-speed LC fitted with a UV-Vis detector (SPD-20A), followed by a single quadrupole MS with an electrospray ionisation source (ESI) (Shimazu, 2020). HPLC separation was performed by a reverse phase C18 column (100 mm × 2.1 mm I.D., 3.5 μm) at the temperature of 35 °C. […] Betacyanins and betaxanthins were detected at the wavelengths of 536 nm and 486 nm, respectively, and their molecular weights were monitored by ESI-MS with positive ion mode. Compounds were identified based on the m/z values and quantified using standard curves with purified betalains, as shown in Supplemental Figure S1.

[13] = system: GSTA-1; experiment: GSTA-1 mRNA level (qPCR) in cytokine-stimulated Caco-2 cells; format: cell-based, human; conditions: 5–80 μM, 6 h cytokine stimulation, vs SC
Description: as §1

[14] = system: IL-8; experiment: IL-8 mRNA level (qPCR) in cytokine-stimulated Caco-2 cells; format: cell-based, human
Description: as §2

[15] = system: Caco-2 cells; experiment: Intracellular ROS formation (DCFH2-DA) in H2O2-stressed Caco-2 cells; format: cell-based, human; conditions: at 80 μM, 200 μM H2O2
Description: The generation of reactive oxygen species (ROS) within Caco-2 cells was determined in 96-well plates with the probe 2′,7′-dichlorodihydrofluorescein diacetate (DCFH2-DA), which is intracellularly deacetylated and oxidised to highly fluorescent 2′,7′-dichlorofluorescein (DCF). DCFH2-DA (30 µM) dissolved in PBS with 1% FBS (v/v) was applied to the confluent Caco-2 cells and incubated for 40 min at 37 °C. After washing, cells were treated with BET, VUL and IND (5–80 μM) for 1 h and subsequently stressed with H2O2 (200 μM) for a further 1 h. The plate was scanned using Tecan Spark 10M^TM with excitation λ of 485 nm and emission λ of 535 nm. Subsequently, the protein content of each well was determined by SRB assay. Briefly, the medium was removed and the cells were washed with PBS and submerged with 50 μL of 0.004% SRB solution (w/v) in 10% trichloroacetic acid (w/v). Cells were incubated at room temperature for 15 min and washed with 1% acetic acid (200 μL, v/v). After treating with Tris base (10 mM, 100 μL), cells were incubated for 5 min under shaking conditions. Finally, the plate was scanned using a Tecan plate reader with excitation λ of 540 nm and emission λ of 590 nm. Results of the ROS assay were normalised to the relative protein content for each well and expressed as the relative fluorescence intensity % (RFI) with respect to the value of positive control.

[16] = EPR spin-trapping superoxide radical scavenging assay; conditions: 20, 50 μM betalain
Description: as §3, §4

[17] = system: iNOS; design: method as in PMID 23931157; conditions: 25 μM; cited from earlier work
[18] = design: method as in PMID 15447903, PMID 24306215, PMID 28358315; conditions: in vivo; cited from earlier work
[19] = Trans-epithelial transport (AP-to-BL) across differentiated Caco-2 monolayer; format: in vitro ADME, human; conditions: human, Caco-2, 1 mM in AP chamber, apical pH 6.5, basolateral pH 7.5, read-out: Papp (apparent permeability coefficient), absorptive direction AP-to-BL
Description: (§6) Trans-epithelial transport of purified betalains (AP-to-BL) was investigated in differentiated Caco-2 cells in 12-well plate transwell inserts (PET membrane, 0.4 μm pore size, Sarstedt) at an initial density of 1 × 10^5 cells cm^−2. Complete medium was added in both apical (AP) and basolateral (BL) chambers and was replaced every 2–3 days. Cell membrane integrity was monitored weekly through measurement of trans-epithelial electrical resistance (TEER) across the growth area until full differentiation of the cells after 21 days. During the experiment, Hanks’ balanced salt solution (HBSS) in the apical compartment was adjusted to pH 6.5 with MES (2 mM), while basolateral pH remained at 7.5 [25]. Purified BET, VUL and IND (420–1000 μM) were supplied to the apical side of the membrane and incubated at 37 °C for up to 2 h. As a marker compound of paracellular transport, phenolsulfonaphtalein (5 mM) was also applied to parallel cell membranes in the apical chamber. The study also evaluated the permeability of compounds through the Caco-2 membrane with a loosened tight junction in parallel wells which was achieved by 5-min incubation of differentiated membrane in trypsin EDTA (0.05%, v/v). The basolateral solution was collected and replaced every 30 min until 2 h, under initial rate conditions. The betalain-containing solutions were processed and submitted to LC-MS analysis, while phenolsulfonaphtalein was quantified spectrophotometrically at λ of 430 nm. TEER values were monitored at the beginning and the end of the experiment to check the impact of compounds on monolayer integrity. The apparent permeability coefficients (Papp) were calculated as per Equation (1), where V = volume of basolateral solution, A = cell growth area, C0 = initial concentration of apical betalain and dC/dt = steady-state flux across the monolayer. (1) Papp=1/C0×A·V×dC/dt
as §5

[20] = system: differentiated Caco-2 cells; experiment: as above; format: in vitro ADME, human; conditions: AP-to-BL
Description: as §6, §5

[21] = system: COX-2; design: method as in PMID 23931157; conditions: 25 μM; cited from earlier work
[22] = 5–80 μM, 6 h cytokine stimulation, maximum effect
[23] = 10 μM co-treatment, 6 h, positive control (not shown)

## O=C(O)C1=C/C(=C/C=[N+]2/CCC[C@H]2C(=O)[O-])C[C@@H](C(=O)O)N1 [IND, indicaxanthin]
[1]
  Attenuation of NOX-1 mRNA levels: up to 34%
[2]; [22]
  Downregulation of IL-6 expression vs cytokine control (SC): up to 50%
[3]
  Reduction of iNOS mRNA levels: < 42%
[4]
  Attenuation of COX-2 mRNA levels: up to 34%
[5]
  Suppression of iNOS: 75%
[6]
  Suppression of COX-2: 88%
[7]
  Antiradical activity in DPPH assay (EPR): did not exhibit any evident antiradical activity
[8]
  Upregulation of GCLC expression: < 25%
[9]
  Upregulation of GPX-1 expression: < 26%
[10]
  Loss along the digestion: minor loss
[11]
  Suppression of NOX-1 protein levels: 89%
[12]
  Intracellular accumulation: 0.03 nmol per mg of protein
[13]
  Induction of GSTA-1 expression: < 50%
[14]; [22]
  Downregulation of IL-8 expression vs cytokine control (SC): ≤ 39%
[15]
  Reduction of H2O2-stimulated ROS: 14%
[16]
  Antiradical activity in superoxide assay (EPR): did not exhibit any evident antiradical activity
[17]
  Suppression of iNOS protein levels: 90%
[18]
  Plasma concentration of IND compared with BET: around 20 fold
  Urinary recovery of IND compared with BET: around 20 fold
[19]
  Papp A→B at 2 h, 1 mM: 0.893 ×10⁻⁶ cm/s
[20]
  Proportion transported within 2 h of total amount applied: 2.2%
[21]
  Suppression of COX-2 protein levels: 80%

## COc1cc(/C=C/C(=O)CC(=O)/C=C/c2ccc(O)c(OC)c2)ccc1O [curcumin, reference compound]
[2]; [23]
  Effect on cytokine-induced IL-6 generation: strongly suppressed
[14]; [23]
  Effect on cytokine-induced IL-8 generation: strongly suppressed
